Experimental findings from patent publication US7479489B2, “Heterocyclic antiviral compounds” (Roche Palo Alto LLC, priority 2004, dated 2009) are described below.

Broadly, the melting point is the temperature, or range, at which the solid turns liquid.

Some results are limits rather than exact numbers.

In turn, `CNC(=O)COc1ccc2c(c1)S(=O)(=O)C=C(c1c(O)c3cc(F)ccc3n(Cc3ccc(F)cc3)c1=O)N2` gave a melting point above 240 °C.
Take `O=C1C(C2=CS(=O)(=O)c3ccccc3N2)=C(O)[C@H](C2CCCCC2)N1Cc1ccc(F)cc1`: the melting point is 180 °C (dec.).
In the case of `CC(C)(C)[C@H]1C(O)=C(C2=CS(=O)(=O)c3cc(N)ccc3N2)C(=O)N1Cc1ccc(F)cc1`, the melting point was in the range of 146 to 155 °C.
`CC(C)CCn1c(=O)c(C2=CS(=O)(=O)c3ccc(C#N)cc3N2)c(O)c2ccccc21` had a melting point above 250 °C.
As for `CN(C)C(=O)COc1ccc2c(c1)S(=O)(=O)C=C(c1c(O)c3cc(F)ccc3n(Cc3ccc(F)cc3)c1=O)N2`, the figure is above 250 °C; as for `CC(C)CCn1c(=O)c(C2=CS(=O)(=O)c3ccccc3N2)c(O)c2cc(F)cnc21`, 90 to 112 °C.
`CC(=O)Nc1ccc2c(c1)S(=O)(=O)C=C(c1c(O)c3cc(F)ccc3n(Cc3ccc(F)cc3)c1=O)N2`: the melting point was above 250 °C.
In turn, `CN(c1ccc2c(c1)S(=O)(=O)C=C(c1c(O)c3cc(F)ccc3n(CCC3CC3)c1=O)N2)S(C)(=O)=O` gave a melting point of 208 to 212 °C.
`CS(=O)(=O)Nc1ccc2c(c1)S(=O)(=O)C=C(c1c(O)c3cc(F)ccc3n(Cc3ccncc3)c1=O)N2.O=C(O)C(F)(F)F` registered a melting point of 167 to 169 °C.
Turning to `COc1ccc2c(c1)c(O)c(C1=CS(=O)(=O)c3ccccc3N1)c(=O)n2CCC1CC1`, the melting point is 220 to 221 °C.
The compound `COc1ccc2c(c1)S(=O)(=O)C=C(c1c(O)c3cc(F)ccc3n(Cc3ccc(F)cc3)c1=O)N2` registered a melting point above 250 °C.
For `COc1cc(CN2C(=O)C(C3=CS(=O)(=O)c4cc(NS(C)(=O)=O)ccc4N3)=C(O)[C@@H]2C(C)(C)C)ccc1F`, the melting point was 175 to 180 °C.
In turn, `O=c1c(C2=CS(=O)(=O)c3cc(NS(=O)(=O)c4ccccc4)ccc3N2)c(O)c2cc(F)ccc2n1CCC1CC1` displayed a melting point above 200 °C.
The compound `CS(=O)(=O)Nc1ccc2c(c1)S(=O)(=O)C=C(c1c(O)c3cc(F)ccc3n(Cc3ccc(F)c(Cl)c3)c1=O)N2` yielded a melting point of 166 to 174 °C.
Turning to `O=c1c(C2=CS(=O)(=O)c3ccccc3N2)c(O)c2ccccc2n1Cc1ccccc1F`, the melting point was above 200 °C.
`CC(C)CCN1C(=O)C(C2=CS(=O)(=O)c3ccccc3N2)=C(O)[C@@H]1C(C)(C)C` had a melting point of 85 to 87 °C.
Compound `CN1C(c2nc(Cc3ccc(F)cc3)c3ccc(F)cc3c2O)=CS(=O)(=O)c2cc(Cl)ccc21` gave a melting point of 254 to 256 °C.
`O=c1c(C2=CS(=O)(=O)c3cc(NS(=O)(=O)C4CC4)ccc3N2)c(O)c2cc(F)ccc2n1CCC1CC1` came in with a melting point of 145 to 155 °C.
Compound `O=c1c(C2=CS(=O)(=O)c3cc(OCc4ccccc4)ccc3N2)c(O)c2cc(F)ccc2n1Cc1ccc(F)cc1` came in with a melting point of 242 to 244 °C.
Turning to `CC(C)C[C@H]1C(O)=C(C2=CS(=O)(=O)c3ccccc3N2)C(=O)N1Cc1ccc(F)cc1`, the melting point was 160 °C (dec.).
On to `Cc1ccc2c(c1)c(O)c(C1=CS(=O)(=O)c3ccccc3N1)c(=O)n2Cc1ccc(F)cc1`, for which the melting point was in the range of 247 to 249 °C.
`Nc1ccc2c(c1)S(=O)(=O)C=C(c1c(O)c3ccccc3n(CCC3CC3)c1=O)N2` displayed a melting point above 250 °C.
`CC(C)(C)[C@H]1C(O)=C(C2=CS(=O)(=O)c3cc(N)ccc3N2)C(=O)N1CCC1CC1` returned a melting point of 105 to 110 °C.
For the compound `CNC(=O)Nc1ccc2c(c1)S(=O)(=O)C=C(c1c(O)c3cc(F)ccc3n(CCC3CC3)c1=O)N2`, the melting point is above 220 °C.
`CS(=O)(=O)Nc1ccc2c(c1)S(=O)(=O)C=C(c1c(O)c3cc(F)ccc3n(CCC3CC3)c1=O)N2.[Na]` returned a melting point above 250 °C.
The compound `CS(=O)(=O)Nc1ccc2c(c1)S(=O)(=O)C=C(c1c(O)c3cc(F)ccc3n(Cc3ccc(F)c(C(F)(F)F)c3)c1=O)N2` showed a melting point of 185.8 to 187 °C.
`N#Cc1cccc(Cn2c(=O)c(C3=CS(=O)(=O)c4ccccc4N3)c(O)c3cc(F)ccc32)c1.[Na]` registered a melting point above 250 °C.
